Source: PMC3878918, “Cathepsin K inhibitors increase distal femoral bone mineral density in rapidly growing rabbits” (BMC Musculoskeletal Disorders, 2013)
Like-named read-outs stand apart in the source and are kept apart here.

Key:
growing rats = settings: cited from earlier work; for trabecular bone volume in the proximal tibial metaphysis vs untreated rats: growing rats, ten days
rabbit osteoclasts [1] = assay: In vitro bone resorption assay, rabbit osteoclasts on bovine bone slices, CTx-I release; format: cell-based
Procedure: The bone resorption assay is a functional in vitro assay that measures Type-I collagen degradation after a three-day incubation of rabbit osteoclasts cultured on bovine bone with varying concentrations of test compound, as previously described. Briefly, long bones isolated from a 10-day-old NZW rabbit were finely minced in alpha-minimal essential medium (α-MEM) (Gibco BRL; Gaithersburg, MD, USA) containing penicillin/streptomycin, pH 7.1 to obtain a cell suspension and 1 × 10^6 cells were seeded onto each 6 mm diameter × 0.22 mm thick bovine bone slice in the same medium containing 2% fetal bovine serum (FBS). After 4 h, the medium was replaced with α-MEM, 2% FBS, 1,25(OH)2D3 10 nM, and test compounds. The cultures were incubated for three days at 37°C in 5% CO2. C-telopeptide of Type-I collagen (CTx-I) released into the medium was measured by the CROSSLAPS Elisa assay (Osteometer Biotech, Herlev, Denmark).

rabbit osteoclasts [2] = test system: rabbit osteoclasts; design: method as in PMID 16302795, PMID 18226527; settings: three-day incubation, CTx-I release; read-out: IC50 Rabbit bone resorption assay; cited from earlier work
rapidly growing rabbits = assay: Rabbit Schenk assay: distal femoral BMD by ex vivo DXA and histology after 10 days' treatment; format: in vivo; settings: for increase in DFBMD vs vehicle / Distal femur BMD / DFBMD of representative DXA image / DFBMD / % BMD gain: 10 days; for Distal femur BMD / DFBMD: mean ± SEM; for DFBMD of representative DXA image: single representative femur; for DFBMD: dose-ranging study; for % BMD gain: vs vehicle
Procedure: To characterize the dose of ALN required to show increases in DFBMD, dose-ranging studies were conducted using ALN, administered at doses of 0, 50, 100, 200, and 500 μg/kg (SC, once daily). Seven-week-old rabbits were weight-randomized into groups (n = 8-11 per group). ALN was prepared in deionized water and pH adjusted to 7.2. The injection volume was 0.3 mL per rabbit. Rabbits were treated daily for 10 consecutive days. Rabbits were reweighed on Day 6 and dosing volume was adjusted accordingly. At necropsy, the right femur was excised and stored in 70% ethanol.
Rabbits were treated once daily by oral gavage for 10 consecutive days with vehicle (1% carboxymethylcellulose or 0.5%/0.2% carboxymethylcellulose/SDS), CatK inhibitors, or ALN (100 μg/kg, SC). Several studies were conducted, with each study including vehicle (n = 11–14), multiple dose levels of a CatK inhibitor (n = 13–14 per group), and ALN (n = 8–9). On Day 1, two rabbits from each group receiving CatK inhibitors were bled via the central ear artery (0.5 mL each) at 0, 0.25, 1, 3, 6, 8, and 24 h after dosing. Plasma concentrations of CatK inhibitors were determined in all samples. On Day 11, rabbits were euthanized. Femurs were removed and stored in 70% ethanol for BMD analysis.
Whole right femurs with muscles removed, were immersed in two inches of water in an acrylic box, and positioned with both distal condyles resting on the bottom of the box. The distal 5 cm of the femur was scanned using small animal software in high resolution mode on a Hologic QDR 4500 fan-beam bone densitometer (DXA; Hologic, Inc., Waltham, MA, USA). The distal 3 cm of the femur was analyzed. A region of interest (ROI) beginning one line distal to the distal edge of the femur and centered 70 lines wide and extending 60 lines proximally in the long axis of the bone was applied. Bone mineral content (BMC) and bone area (BAr) were output by DXA software. BMD was calculated as BMC/BAr.
Following ex vivo DXA scanning, the distal one-third of the femur was cut mid-sagitally and then dehydrated, without prior decalcification, in increasing concentrations of ethanol. The right portion was embedded in 80% methylmethacrylate/20% dibutyl phthalate. Parasagittal sections (6 μm) were cut on a Reichert-Jung Polycut sledge microtome (Nussloch, Germany) and mounted on glass slides. A Masson’s trichrome stain was performed to view calcified tissue.

rabbit CatK = settings: 2 μM Z-Leu-Arg-AMC as substrate; cited from earlier work
[3] = design: method as in PMID 16302795, PMID 18226527; settings: rabbit, cited from earlier work; for Cmin / AUC / Cmax: oral; for Cmin: trough at 24 h
mouse CatK = test system: mouse CatK; design: method as in PMID 19453281; settings: cited from earlier work
human CatK = test system: human CatK; design: method as in PMID 19453281; settings: cited from earlier work
rat CatK = test system: rat CatK; design: method as in PMID 19453281; settings: cited from earlier work
weanling rats = settings: six weeks of once-weekly treatment; cited from earlier work
[4] = printed in the 3 mg/kg dose row
[5] = printed in the 10 mg/kg dose row

Compound	IC50 (rabbit osteoclasts [2])	increase in DFBMD vs vehicle (rapidly growing rabbits; 10 mg/kg oral once daily)	Distal femur BMD (rapidly growing rabbits; 10 mg/kg oral once daily)	IC50 (rabbit CatK)	Cmin ([3]; 10 mg/kg)	AUC ([3]; 10 mg/kg)	Cmax ([3]; 10 mg/kg)	fold more potent in the bone resorption assay than L-833905 (rabbit osteoclasts [1])	increase in DFBMD vs vehicle (rapidly growing rabbits; 3 mg/kg oral once daily)	Cl ([3]; 1 mg/kg dose)	Cmin ([3]; 1 mg/kg, LOD ~ 1 nM)	AUC ([3]; 1 mg/kg)	Cmax ([3]; 1 mg/kg)	Cmin ([3]; 3 mg/kg)	AUC ([3]; 3 mg/kg)	Cmax ([3]; 3 mg/kg)	other results
O=P(O)(O)C(Cl)(Cl)P(=O)(O)O [clodronate]																	trabecular bone volume in the proximal tibial metaphysis vs untreated rats (growing rats): higher trabecular bone volume
CC(C)C[C@@H](C(=O)NCC#N)c1cccc(-c2ccc(N3CCNCC3)cc2)c1 [Compound L-833905, (R)-N-(cyanomethyl)-4-methyl-2-(4′-(piperazin-1-yl)-[1,1′-biphenyl]-3-yl)pentanamide]	149 ± 20 nM	3%	282.5 ± 5.5 mg/cm^2	33 ± 2 nM	29 nM	1.9 μm*hr	163 nM										fold less potent inhibitor of CatK than L-006235, L-873724 and ODN (rabbit osteoclasts [1]; from the EIA and functional cell-based assay): 6–30 fold; increase in DFBMD vs vehicle (rapidly growing rabbits; 30 mg/kg oral once daily): 10%; Distal femur BMD (rapidly growing rabbits; 30 mg/kg oral once daily): 301.8 ± 4.9 mg/cm^2; Cmin ([3]; 30 mg/kg): 60 nM; AUC ([3]; 30 mg/kg): 6.1 μm*hr; Cmax ([3]; 30 mg/kg): 651 nM
CN1CCN(c2nc(-c3ccc(C(=O)NC4(C(=O)NCC#N)CCCCC4)cc3)cs2)CC1 [Compound L-006235]	5 ± 1 nM	15%	303.5 ± 5.4 mg/cm^2	0.5 nM	8 nM	5.0 μm*hr	2440 nM	approximately 30 fold	11%	113 mL/min/kg	9 nM	0.3 μm*hr	74 nM	15 nM	1.0 μm*hr	337 nM	increase in DFBMD vs vehicle (rapidly growing rabbits; 1 mg/kg oral once daily): 7%; Distal femur BMD (rapidly growing rabbits; 1 mg/kg oral once daily): 281.7 ± 4.9 mg/cm^2; Distal femur BMD (rapidly growing rabbits; 3 mg/kg oral once daily): 293.5 ± 2.8 mg/cm^2; Cl [3, 4]: 113 mL/min/kg; Cl [3, 5]: 113 mL/min/kg
CC(C)(F)C[C@H](N[C@@H](c1ccc(-c2ccc(S(C)(=O)=O)cc2)cc1)C(F)(F)F)C(=O)NC1(C#N)CC1 [ODN, odanacatib]	23 ± 6 nM			1 nM				approximately 30 fold	19%	6 mL/min/kg	37 nM	2.2 μm*hr	130 nM	88 nM	4.1 μm*hr	270 nM	IC50 (mouse CatK): 108 nM; fold less potent versus mouse CatK than versus human and rabbit CatK (mouse CatK): more than 500 fold; IC50 (human CatK): 0.2 nM; increase in DFBMD vs vehicle (rapidly growing rabbits; 0.3 mg/kg oral once daily): 7%; increase in DFBMD vs vehicle (rapidly growing rabbits; 1 mg/kg oral once daily): 11%; DFBMD of representative DXA image (rapidly growing rabbits; ODN 3 mg/kg): 388 mg/cm^2; IC50 (rat CatK): 112 nM; fold less potent versus rat CatK than versus human and rabbit CatK (rat CatK): more than 500 fold; AUC ([3]; 0.3 mg/kg): 0.7 μm*hr; Cl ([3]; printed in the 0.3 mg/kg dose row): 6 mL/min/kg
CC(C)C[C@H](N[C@@H](c1ccc(-c2ccc(S(C)(=O)=O)cc2)cc1)C(F)(F)F)C(=O)NCC#N [Compound L-873724]	13 ± 1 nM	15%	327.7 ± 7.5 mg/cm^2	0.8 nM	32 nM	7.8 μm*hr	1370 nM	approximately 30 fold	9%	26 mL/min/kg	<LOD*	0.5 μm*hr	78 nM	28 nM	3.1 μm*hr	490 nM	Distal femur BMD (rapidly growing rabbits; 1 mg/kg oral once daily): 301.2 ± 3.7 mg/cm^2; Distal femur BMD (rapidly growing rabbits; 3 mg/kg oral once daily): 310.5 ± 6.5 mg/cm^2; Cl [3, 4]: 26 mL/min/kg; Cl [3, 5]: 26 mL/min/kg
NCCCC(O)(P(=O)(O)O)P(=O)(O)O [ALN, alendronate, reference compound]																	trabecular bone volume (growing rats; seven days SC 0.010 mg/kg/d): increased trabecular bone volume; distal femoral metaphyseal BMD (weanling rats): increase in distal femoral metaphyseal BMD; histology of distal femoral metaphysis compared to vehicle (rapidly growing rabbits; 10 days' treatment, Masson's trichrome): increased retention of both calcified cartilage and bone tissue; DFBMD (rapidly growing rabbits; ALN 50 μg/kg SC once daily): 277.8 ± 8.4 mg/cm^2; % BMD gain (rapidly growing rabbits; ALN 50 μg/kg/day SC): 15%; DFBMD (rapidly growing rabbits; ALN 100 μg/kg SC once daily): 313.7 ± 3.9 mg/cm^2; Distal femur BMD (rapidly growing rabbits; ALN 100 μg/kg SC positive control in the L-006235 study): 300.5 ± 4.6 mg/cm^2; Distal femur BMD (rapidly growing rabbits; ALN 100 μg/kg SC positive control in the L-833905 study): 314.0 ± 9.1 mg/cm^2; Distal femur BMD (rapidly growing rabbits; ALN 100 μg/kg SC positive control in the L-873724 study): 352.8 ± 9.4 mg/cm^2; % BMD gain (rapidly growing rabbits; ALN 100 μg/kg/day SC): 16%; DFBMD of representative DXA image (rapidly growing rabbits; ALN 100 μg/kg/day): 361 mg/cm^2; DFBMD (rapidly growing rabbits; ALN 200 μg/kg SC once daily): 281.7 ± 6.4 mg/cm^2; % BMD gain (rapidly growing rabbits; ALN 200 μg/kg/day SC): 16%; DFBMD (rapidly growing rabbits; ALN 500 μg/kg SC once daily): 291.2 ± 9.4 mg/cm^2; % BMD gain (rapidly growing rabbits; ALN 500 μg/kg/day SC): 21%
CC(O)(P(=O)(O)O)P(=O)(O)O [etidronate]																	trabecular bone volume in the proximal tibial metaphysis vs untreated rats (growing rats): higher trabecular bone volume
